{"source": "patent EP4722358A1", "about": "(AJOU UNIVERSITY INDUSTRY-ACADEMIC COOPERATION FOUNDATION, priority 2023, dated 2024)", "experiment_in_all_cases": "Enzymatic reaction rate with glycerol (MBTH assay)", "type_in_all_cases": "biochemical", "key": {"[1]": {"system": "Klebsiella pneumoniae fused glycerol dehydratase fGDHt variant A177M/L113W/M158W(α/β/β)", "conditions": "substrate glycerol, MBTH assay 5 minutes, deoxygenated 35 mM phosphate buffer (pH 8.0), 2 µM coenzyme B12", "method": "(§1) The activities of the wild-type and variant enzymes were measured at 25°C using 3-methyl-2-benzothiazolinone hydrazone (MBTH). To eliminate oxygen inactivation, the enzymes were incubated for 5 minutes in 35 mM phosphate buffer (pH 8.0) stirred with a negative pressure pump. The reaction was initiated by the addition of glycerol. The absorbance measured at 670 nm of the variant was compared with that of the wild-type fGDHt to determine the relative substrate activity (FIG. 10). The MBTH assay was performed as follows:\n(§2) The reaction was then initiated by adding glycerol, the substrate to the assay mixture. The reaction was performed for 5 minutes and the reaction was terminated by adding 12 mg/mL MBTH and 0.1 M potassium citrate buffer (pH 3.6). Five minutes after the reaction was terminated, FeCl3 was added thereto and the reaction was performed for 15 minutes. The absorbance was measured at 670 nm.\n(§3) Km and Kcat were calculated using the following Equation (Michaelis-Menten equation): v = (d[P])/(dt) = Vmax ([S])/(KM + [S]) = kcat [E]0 ([S])/(KM + [S]) [formula]\n(§4) wherein Km is the Michaelis constant and Kcat is the enzyme turnover number."}, "[2]": {"system": "Klebsiella pneumoniae fused glycerol dehydratase fGDHt variant A177M/L113W(α/β)", "conditions": "substrate glycerol, MBTH assay 5 minutes, deoxygenated 35 mM phosphate buffer (pH 8.0), 2 µM coenzyme B12", "method": "as §1, §2, §3, §4"}, "[3]": {"system": "Klebsiella pneumoniae fused glycerol dehydratase fGDHt variant L113W(β)", "conditions": "substrate glycerol, MBTH assay 5 minutes, deoxygenated 35 mM phosphate buffer (pH 8.0), 2 µM coenzyme B12", "method": "as §1, §2, §3, §4"}, "[4]": {"system": "Klebsiella pneumoniae fused glycerol dehydratase fGDHt variant A177M/M158W(α/β)", "conditions": "substrate glycerol", "method": "as §1, §2, §3, §4"}, "[5]": {"system": "Klebsiella pneumoniae fused glycerol dehydratase fGDHt variant A177M(α)", "conditions": "substrate glycerol, MBTH assay 5 minutes, deoxygenated 35 mM phosphate buffer (pH 8.0), 2 µM coenzyme B12", "method": "as §1, §2, §3, §4"}, "[6]": {"system": "Klebsiella pneumoniae fused glycerol dehydratase fGDHt variant L113F(β)", "conditions": "substrate glycerol", "method": "as §1, §2, §3, §4"}, "[7]": {"system": "Klebsiella pneumoniae fused glycerol dehydratase fGDHt variant M158W(β)", "conditions": "substrate glycerol, MBTH assay 5 minutes, deoxygenated 35 mM phosphate buffer (pH 8.0), 2 µM coenzyme B12", "method": "as §1, §2, §3, §4"}, "[8]": {"system": "Klebsiella pneumoniae glycerol dehydratase, fGDHt (alpha-beta fused subunit, stop codon TAA changed to glutamine CAA), SEQ ID NO: 4", "conditions": "substrate glycerol, MBTH assay 5 minutes, deoxygenated 35 mM phosphate buffer (pH 8.0), 2 µM coenzyme B12", "method": "as §1, §2, §3, §4"}, "[9]": {"conditions": "FGDHt(A177M/M158W(α/β)), MBTH assay 5 minutes, deoxygenated 35 mM phosphate buffer (pH 8.0), 2 µM coenzyme B12"}, "[10]": {"conditions": "fGDHt (L113F(β)), MBTH assay 5 minutes, deoxygenated 35 mM phosphate buffer (pH 8.0), 2 µM coenzyme B12"}}}
{"smiles": "OCC(O)CO", "note": "[glycerol]", "values": [{"measurement": "Kcat", "setting": "[1]", "result": "28.93 ± 2.17", "unit": "s⁻¹"}, {"measurement": "Km", "setting": "[1]", "result": "140 ± 40", "unit": "µM"}, {"measurement": "Kcat", "setting": "[2]", "result": "31.96 ± 9.42", "unit": "s⁻¹"}, {"measurement": "Kcat", "setting": "[3]", "result": "31.82 ± 10.99", "unit": "s⁻¹"}, {"measurement": "Km", "setting": "[3]", "result": "520 ± 170", "unit": "µM"}, {"measurement": "kcat/Km higher than those of fGDHt", "setting": "[4]; A177M/M158W (α/β) compared with fGDHt", "result": 8, "unit": "%"}, {"measurement": "Kcat", "setting": "[4]; [9]", "result": "155.47 ± 13.23", "unit": "s⁻¹"}, {"measurement": "Km", "setting": "[4]; [9]", "result": "150 ± 40", "unit": "µM"}, {"measurement": "Kcat", "setting": "[5]", "result": "107.48 ± 14.91", "unit": "s⁻¹"}, {"measurement": "Km", "setting": "[5]", "result": "360 ± 70", "unit": "µM"}, {"measurement": "kcat/Km higher than those of fGDHt", "setting": "[6]; L113F (β) compared with fGDHt", "result": 6, "unit": "%"}, {"measurement": "Kcat", "setting": "[6]; [10]", "result": "208.62 ± 21.8", "unit": "s⁻¹"}, {"measurement": "Km", "setting": "[6]; [10]", "result": "240 ± 60", "unit": "µM"}, {"measurement": "Km", "setting": "[7]", "result": "340 ± 50", "unit": "µM"}, {"measurement": "Kcat", "setting": "[8]", "result": "230.28 ± 10.63", "unit": "s⁻¹"}, {"measurement": "Km", "setting": "[8]", "result": "270 ± 30", "unit": "µM"}]}
